This note sets out measurements from patent US6972287B1, “Method of inhibiting amyloid protein aggregation and imaging amyloid deposits” (Pfizer Inc., priority 1999, dated 2005).

Where “and” joins values, the source holds several entries; their conditions need not be identical. Equal entries are not always repeated.

Series [1] deals with T1, Aβ(1-40) (Homo sapiens, UniProt P05067).
T1 construct: […]; purchased Bachem, Torrance, Calif
The series can be described thus: BASSR (Beta-Amyloid Self-Seeding Radioassay), inhibitors of self-seeded amyloid fibril growth. The format is biochemical. As for the experimental part:
BASSR (Beta-Amyloid Self-Seeding Radioassay)
(§1) An assay for inhibitors of self-seeded amyloid fibril growth
Assay Buffer—50 mM sodium phosphate, pH 7.5, 100 mM NaCl, 0.02% NaN3, 1 M urea (filter and store at 4° C.).
(§2) Typically, the solution should be stored until no lag phase is seen in the assay.
^125I-labeled Aβ(1-40)—150K-350K cpm/μL in 100% acetonitrile—0.1% trifluoroacetic acid (TFA)—1% β-mercaptoethanol (aliquots stored at −20° C.). ^125I-labeled Aβ(1-40) can be made in accordance with the procedure set forth by H. LeVine, III in Neurobiol. Aging, 16, 755, (1995), which is hereby incorporated by reference, or this reagent may be purchased from Amersham, Arlington Heights, Ill.
The following are the amounts of the components of the reaction mixture sufficient for 50 assay wells:
• 1) Prepare reaction mixture above by mixing components and storing on ice. • 2) Pipet 14.5 μL of reaction mixture into each of 50 wells on a polypropylene U-bottom 96-well microtiter plate on ice. (Costar 3794). • 3) Add 1.7 μL of diluted compound to be tested to each well in a column of eight, including solvent control. Serial 3-fold dilutions from 1 mM (100 μM final) in assay buffer−urea=7 dilutions+zero. Each 96-well plate can therefore accommodate 11 samples+1 Congo Red control (0.039-5 μM final in 2-fold steps). • 4) Seal the plate with aluminum film (Beckman 538619) and incubate for 10 minutes on ice. • 5) Raise the temperature to 37° C. and incubate for 3 to 5 hours (depending on the lot of the peptide). • 6) Remove the aluminum film and add 200 μL/well of ice cold assay buffer with urea, collecting the radiolabeled fibrils by vacuum filtration through 0.2 μm pore size GVWP filters in 96-well plates (Millipore MAGV N22, Bedford, Mass.). Determine the radioactivity of the filters using standard methods well-known to those skilled in the art. BASST (Beta-Amyloid Self-Seeding, Thioflavin T)

In series [2] the target is T1, Aβ(1-40). Put plainly: BASST (Beta-Amyloid Self-Seeding, Thioflavin T), inhibitors of self-seeded amyloid fibril growth. The conditions noted are these: read-out: BASST (IC50 = μM). The format is biochemical. As for the experimental part:
as §1
Assay Buffer—50 mM sodium phosphate, pH 7.5, 100 mM NaCl, 0.02% NaN3, 1 M urea (filter and store at 4° C.)
as §2
The following are the amounts of the components of the reaction mixture that result in each of the 50 assay wells:
• 1) Prepare the reaction mix above by mixing the components and storing on ice. • 2) Pipet 14.5 μL of reaction mixture into each of 50 wells of a polystyrene U-bottom 96-well microtiter plate (Corning 25881-96) on ice. • 3) Add 1.7 μL of diluted compound to be tested to each well in a column of eight, including solvent control. Serial 3-fold dilutions from 1 mM (100 μM final) in assay buffer−urea=7 dilutions+zero. Each 96-well plate can therefore accommodate 11 samples+1 Congo Red control (0.039-5 μM final in 2-fold steps). • 4) Seal the plate with aluminum film and incubate for 10 minutes on ice. • 5) Raise the temperature to 37° C. and incubate for 3 to 5 hours (depends on the lot of the peptide). • 6) Remove the aluminum film and add 250 μL/well of 5 μM thioflavin T (ThT) [T-3516, Sigma-Aldrich] in 50 mM glycine-NaOH, pH 8.5. Read fluorescence on a plate reader (ex=440 nm/20 nm; em=485 nm/20 nm) within 5 minutes. BAPA (Beta-Amyloid Peptide Aggregation)

For series [3], the target named is T2, Aβ (1-42) (Homo sapiens, UniProt P05067).
T2 construct: Required Aβ (1-42) (California Peptide) was dried from its hexafluoroisopropanol (HFIP) stock solution; purchased California Peptide
T2 sequence (P05067 672-713 limits assumed): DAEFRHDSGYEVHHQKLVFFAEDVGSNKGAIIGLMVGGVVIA
The series can be described thus: BATYM assay (Aβ (1-42) aggregation, Thioflavin T fluorescence). The format is biochemical. The conditions noted are these: Aβ 1-42 final concentration 100 μM, 37° C., 1 day, letter = synthetic lot. How it is done: Required Aβ (1-42) (California Peptide) was dried from its hexafluoroisopropanol (HFIP) stock solution. The Aβ (1-42) was dissolved in dimethylsulfoxide (DMSO) and then mixed with phosphate buffered saline (PBS) (pH 7.4). The mixed Aβ (1-42) solution was filtered with a 0.2 μm Omnipore membrane syringe filter Millipore, Bedford, Mass.). The compound to be tested in DMSO (50 times concentrate) was put into each well (0.5 μL/well) of a 96-well plate. The Aβ (1-42) solution was added into each well (24.5 μL/well). The plate was centrifuged at 1,000 g for 5 minutes and incubated at 37° C. for 1 day (Aβ 1-42; final concentration 100 μM).
After incubation Thioflavin T (ThT) (30 μM) solution in glycine-NaOH buffer (pH 8.5, 50 mM) was added into each well (250 μL/well), fluorescence was measured (ex=440/20 nm, em=485/20 nm) using a fluorescence plate reader. The inhibitory activity was calculated as the reduction of fluorescence with the following formula: Inhibition (%)={(F(Aβ)−F(Aβ+compound)}/{F(Aβ)−[…]}×100
The IC50s were calculated by a curve fitting program using the following equation. The data were obtained from two different experiments in triplicate.
x=Concentration of tested compound (M),

Series [4] deals with T3, Aβ (1-40) peptide (Homo sapiens, UniProt P05067).
T3 construct: 10 μL 0.5 mg/mL Aβ (1-40) peptide in 20% HFIP
T3 sequence (P05067 672-711 limits assumed): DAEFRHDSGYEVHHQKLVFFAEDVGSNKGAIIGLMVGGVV
Put plainly: BAPA (Beta-Amyloid Peptide Aggregation, pH 6.0, filtration). The format is biochemical. Particulars: Aβ (1-40) 33 μM, pH 6.0, 2 to 4 hours at room temperature; replicate values; letter = synthetic lot. As for the experimental part:
Each 96-well plate can therefore accommodate 11 samples+1 Congo Red control (0.039-5 μM final in 2-fold steps). • 4) Seal the plate with aluminum film and incubate for 10 minutes on ice. • 5) Raise the temperature to 37° C. and incubate for 3 to 5 hours (depends on the lot of the peptide). • 6) Remove the aluminum film and add 250 μL/well of 5 μM thioflavin T (ThT) [T-3516, Sigma-Aldrich] in 50 mM glycine-NaOH, pH 8.5. […] The purpose of this assays is to provide a higher volume method of assaying the amount of beta amyloid aggregation using an endpoint assay based on filtration. In this assay, hexafluoroisopropanol (HFIP) is used to break down the initial amyloid peptide to a monomer state and use a concentration of 33 μM which is high enough so that aggregation will occur at pH 6.0 in several hours. Methods: […] Then, we incubate for 2 to 4 hours at room temperature. […] We wash the filter plate with 100 μL of the same phosphate buffer. Aggregation was detected on a Microbeta counter after impregnating the filters with Meltilex (1450-441) and is corrected for background.

The mark [5] stands for this setting: 30 μM soluble Aβ(1-40) + 125I-labeled Aβ(1-40), 37° C., 3 to 5 hours, replicate values, letter = synthetic lot, ppt = precipitate, V-shaped = inhibition followed by precipitation.
Where [6] appears, read: 30 μM soluble Aβ(1-40), 37° C., 3 to 5 hours, thioflavin T fluorescence, replicate values, letter = synthetic lot.

T1 sequence (P05067 672-711 limits assumed): as above

In the case of `O=C(O)c1cc(F)ccc1Nc1ccc(CCCc2ccc(Cl)c(Cl)c2)cc1` [Example 139, 2-{4-[3-(3,4-Dichloro-phenyl)-propyl]-phenylamino}-5-fluoro-benzoic acid], the melting point (usually the temperature, or range, at which the solid turns liquid) was in the range of 122 to 123 °C.
Regarding `O=C(O)c1ccccc1Nc1ccc(CCc2cc(O)c(O)c(O)c2)cc1` [Example 6, 2-{4-[2-(3,4,5-Trihydroxy-phenyl)-ethyl]phenylamino}benzoic acid], the half-maximal inhibitory concentration (IC50) (commonly the concentration that gives 50% inhibition) is 15 µM and 21 µM and 20 µM and 40 µM in series [1] (setting [5]); 4 µM and 1 µM and 3 µM in series [2] (setting [6]); 21.5 µM in series [3]; over 60 µM in series [4].
`COc1cc(Nc2ccc(CCCc3ccc(Cl)c(Cl)c3)cc2)c([N+](=O)[O-])cc1C(=O)O` [Example 138, 4-{4-[3-(3,4-Dichloro-phenyl)propyl]-phenylamino}-2-methoxy-5-nitro-benzoic acid] registered a melting point of 74 to 78 °C.
Regarding `CCCCN(CCCC)c1ccc(CCCc2ccc(Nc3ccccc3C(=O)O)cc2)cc1` [Example 44, 2-{4-[3-(4-Dibutylaminophenyl)propyl]phenylanino}benzoic acid], the 50% inhibitory concentration (IC50) is over 100 µM in series [1] (setting [5]), 1 µM in series [2] (setting [6]), 26.5 µM in series [3] and 52 µM in series [4].
Consider `O=C(O)c1ccccc1Nc1ccc(CCc2ccc(N3CC[C@@H]4CCCC[C@H]4C3)cc2)cc1` [Example 82, 2(4-{2-[(4aS,8aR)-4-(Octahydro-isoquinolin-2-yl)-phenyl]-ethyl}-phenylamino)-benzoic acid], for which the melting point lay within 203 to 206 °C. Further, in series [1] (setting [5]), the IC50 was over 100 µM. In addition, the 50% inhibitory concentration (IC50) in series [2] (setting [6]) was 2 µM and 300 nM (2×).
For the compound `O=C(O)c1ccccc1Nc1ccc(CCc2ccc(Nc3ccccc3C(=O)O)cc2)cc1` [Example 136, 2-{4-[2-(4-{2-Hydroxycarbonylphenylamino}phenyl)ethyl]-phenylamino}-benzoic acid], the 50% inhibitory concentration (IC50) is over 100 µM in series [1] (setting [5]), 3 µM in series [2] (setting [6]), over 100 µM in series [3] and 53 µM in series [4].
Turning to `CCCCN(CCCC)c1ccc(Nc2ccc(CCc3ccc(Cl)c(Cl)c3)cc2)c(C(=O)O)c1` [Example 150, 5-Dibutylamino-2-{4-[2-(3,4-dichloro-phenyl)-ethyl]-phenylamino}-benzoic acid], the IC50 in series [1] (setting [5]) was over 100 µM; in series [2] (setting [6]), 10 µM; in series [3], over 100 µM; in series [4] it was 76 µM.
Consider `O=C(O)c1cccc(C(F)(F)F)c1Nc1ccc(CCc2ccc(Cl)c(Cl)c2)cc1` [Example 146, 2-{4-[2-(3,4-Dichloro-phenyl)-ethyl]-phenylamino}-3-trifluoromethyl-benzoic acid], for which the IC50 in series [1] (setting [5]) is over 100 µM; in series [2] (setting [6]) it was 30 µM; in series [3], over 100 µM; in series [4], over 60 µM.
For `Nc1ccc(CCCc2ccc(Nc3ccccc3C(=O)O)cc2)cc1` [Example 22, 2-{4-[3-(4-Aminophenyl)propyl]phenylamino}benzoic acid], the IC50 in series [1] (setting [5]) was 3 µM; in series [2] (setting [6]), 9 µM; in series [3], over 100 µM; in series [4], 24 µM.
In the case of `O=C(O)c1cc([N+](=O)[O-])ccc1Nc1ccc(CCCCc2ccc(Cl)c(Cl)c2)cc1` [Example 11, 2-{4-[4-(3,4-Dichloro-phenyl)-butyl]-phenylamino}-5-nitro-benzoic acid], the IC50 in series [1] (setting [5]) was 18 µM and 20 µM (2×) and > 100 µM (2×) and 21 µM and 30 µM; in series [2] (setting [6]), 1 µM (3×) and 3 µM and 800 nM; in series [3] it was 5.62 µM and 6.78 µM; in series [4], 23 µM and 9 µM.
Turning to `O=C(O)c1ccccc1Nc1ccc(CCc2ccc(Cl)c(C(F)(F)F)c2)cc1` [Example 17], the IC50 in series [1] is over 100 µM; in series [2], 6.2 µM; in series [3], 64.5 µM; in series [4], > 60 µM and 41 µM.
With `CCN(CC)c1cccc(CCCc2ccc(Nc3ccccc3C(=O)O)cc2)c1` [Example 32, 2-{4-[3-(3-Diethylaminophenyl)propyl]phenylamino}benzoic acid], the IC50 in series [1] (setting [5]) was over 100 µM; in series [2] (setting [6]), 1 µM; in series [3], 29.2 µM; in series [4] it was 96 µM.
On to `Nc1ccc(Nc2ccc(CCCCCc3ccc(Cl)c(Cl)c3)cc2)c(C(=O)O)c1` [Example 140, 5-Amino-2-{4-[5-(3,4-dichloro-phenyl)pentyl]-phenylamino}-benzoic acid], for which the melting point fell in the range of 182 to 184 °C.
“2-{4-[5-(3,4-Dichloro-phenyl)pentyl]phenylamino}methoxy-5-nitrobenzoic acid [Example 14]”: the IC50 is 18 µM and 8 µM and 6 µM and 7 µM in series [1] (setting [5]); 1 µM in series [2] (setting [6]); 10.9 µM in series [3]; over 10 µM in series [4].
In the case of `COc1cc(Nc2ccc(CCCc3ccc(Cl)c(Cl)c3)cc2)c(C(=O)O)cc1[N+](=O)[O-]` [Example 7], the IC50 is 18 µM and 13 µM and 12 µM and 20 µM in series [1] (setting [5]); 2 µM in series [2] (setting [6]); 8.83 µM in series [3]; 39 µM in series [4].
For the compound `Nc1ccc(CCCc2ccc(Nc3ccccc3C(=O)O)cc2)cc1` [Example 159, 2-{4-[3-(4-Aminophenyl)propyl]phenylamino}benzoic acid], the melting point is 110 to 112 °C.
For the compound `O=C(NS(=O)(=O)c1ccccc1)c1ccccc1Nc1ccc(CCCc2ccc(Cl)c(Cl)c2)cc1` [Example 142, N-(2-{4-[3-(3,4-Dichloro-phenyl)propyl]-phenylamino}-benzoyl)-benzenesulfonamide], the IC50 in series [1] (setting [5]) is over 100 µM; in series [2] (setting [6]) it was 2.1 µM; in series [3], 26.9 µM; in series [4], 55 µM.
